# Measurements from PubChem BioAssay (NCI).
#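 Each compound was tested at five concentrations against cells in 96-well plates for 48 hours. TGI: concentration producing complete growth inhibition.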
# Legend:
# Experiment in all cases: NCI tumour cell line growth inhibition, 48 h
# A549 NSCLC = test system: A549 NSCLC
# ACHN renal = test system: ACHN renal
# CCRF-CEM leukemia = test system: CCRF-CEM leukemia
# COLO 205 colon = test system: COLO 205 colon
# DU-145 prostate = test system: DU-145 prostate
# HL-60(TB) leukemia = test system: HL-60(TB) leukemia
# HOP-92 NSCLC = test system: HOP-92 NSCLC
# HT29 colon = test system: HT29 colon
# MOLT-4 leukemia = test system: MOLT-4 leukemia
# OVCAR-3 ovarian = test system: OVCAR-3 ovarian
# PC-3 prostate = test system: PC-3 prostate
# RPMI-8226 leukemia = test system: RPMI-8226 leukemia
# RXF 393 renal = test system: RXF 393 renal
# SW-620 colon = test system: SW-620 colon
# U251 CNS = test system: U251 CNS
# UACC-62 melanoma = test system: UACC-62 melanoma
# UO-31 renal = test system: UO-31 renal
# HOP-62 NSCLC = test system: HOP-62 NSCLC
# SK-OV-3 ovarian = test system: SK-OV-3 ovarian
# NCI-H226 lung = test system: NCI-H226 lung
Structure (SMILES),TGI (A549 NSCLC) [µM],TGI (ACHN renal) [µM],TGI (CCRF-CEM leukemia) [µM],TGI (COLO 205 colon) [µM],TGI (DU-145 prostate) [µM],TGI (HL-60(TB) leukemia) [µM],TGI (HOP-92 NSCLC) [µM],TGI (HT29 colon) [µM],TGI (MOLT-4 leukemia) [µM],TGI (OVCAR-3 ovarian) [µM],TGI (PC-3 prostate) [µM],TGI (RPMI-8226 leukemia) [µM],TGI (RXF 393 renal) [µM],TGI (SW-620 colon) [µM],TGI (U251 CNS) [µM],TGI (UACC-62 melanoma) [µM],TGI (UO-31 renal) [µM],TGI (HOP-62 NSCLC) [µM],TGI (SK-OV-3 ovarian) [µM],TGI (NCI-H226 lung) [µM]
COC1(c2ccc(Cl)cc2)SC=C(C)n2c1noc2=O (centres undefined),> 100,> 100,> 100,> 100,> 100,> 100,> 100,> 100,> 100,> 100,> 100,> 100,> 100,> 100,> 100,> 100,> 100,,,
COc1cccc(-c2nc3ccccc3c(=O)[nH]2)c1,49.4,37.4,,> 100,> 100,> 100,> 100,55.5,> 100,42.7,41.7,,56.6,> 100,44.7,44,45.2,37.1,48.2,
O=[N+]([O-])C(=C(Cl)Cl)C(Cl)=C(Cl)Cl,19.6,2.05,,0.254,24,0.0573,1.03,0.852,0.175,2.24,4.66,,0.091,0.157,7.26,1.75,2.94,25.3,9.51,3.53
COc1cc(NC(C)c2ccc3c(c2)OCCO3)cc(OC)c1OC (centres undefined),> 100,> 100,,71.8,> 100,48.6,> 100,> 100,> 100,> 100,> 100,84.6,> 100,> 100,94.1,> 100,> 100,> 100,,75.6
CC1OC(OC2C(OC(=O)[C@]34CCC(C)(C)C[C@H]3C3=CC[C@@H]5[C@@]6(C)CC[C@H](OC7OC(C(=O)O)C(O)C(O)C7O)C(C)(C)[C@@H]6CC[C@@]5(C)[C@]3(C)C[C@H]4O)OCC(O)C2O)C(O)C(O)C1OC1OCC(OC2OCC(O)C(O)C2O)C(O)C1O (some centres undefined),15.5,15.8,,3.32,23.8,18.1,19.5,11,37.1,30,19.3,51.5,29,23.1,21.2,23.7,4.84,27.1,26.9,22.9
CC1OC(OC2C(O[C@H]3CC[C@@H]4C(=CC[C@@H]5[C@@]4(C)C(=O)C[C@]4(C)[C@@H]([C@H](C)CC[C@@H](O)C(C)(C)O)CC[C@@]54C)C3(C)C)OC(CO)C(O)C2O)C(O)C(O)C1O (some centres undefined),> 100,> 100,> 100,> 100,> 100,> 100,> 100,> 100,> 100,> 100,> 100,,> 100,> 100,> 100,> 100,> 100,> 100,> 100,> 100
COc1ccc(N2CN3OC(=O)N(c4ccc(OC)cc4)[C@@]3(c3ccccc3)C2)cc1,> 100,> 100,,80.1,> 100,67.9,> 100,50.6,> 100,48.9,67.3,> 100,74.6,> 100,> 100,> 100,> 100,> 100,> 100,> 100
Cc1sc(Nc2ccc(Nc3nc(-c4ccccc4)c(C)s3)cc2)nc1-c1ccccc1,> 100,> 100,> 100,42.1,> 100,,> 100,> 100,> 100,> 100,48.4,,81.5,> 100,49.6,> 100,> 100,> 100,> 100,> 100
Cc1ccc(N=N/C(=N/NC(=O)c2cc(Cl)ccc2O)c2ccc(N(CCC#N)CCC#N)cc2C)cc1,> 100,70.4,> 100,44.2,> 100,> 100,,60.6,> 100,55.9,> 100,> 100,> 100,,> 100,59.7,64.9,> 100,74.2,63.7
NC(=O)C(=CNC(N)=S)C(N)=O,> 100,> 100,> 100,> 100,> 100,> 100,,> 100,> 100,> 100,> 100,> 100,> 100,> 100,> 100,> 100,> 100,> 100,> 100,> 100
CN1Cc2ccccc2S(=O)(=O)n2cccc2C1=O,> 100,> 100,> 100,> 100,> 100,> 100,> 100,,> 100,> 100,> 100,> 100,> 100,> 100,> 100,> 100,> 100,> 100,> 100,
CN1CCc2cc3c(c4c2C1C(O)c1ccccc1-4)OCO3 (centres undefined),52.1,> 100,9.69,> 100,> 100,5.06,7.22,18.3,37.6,44.1,18.6,32.6,10.8,> 100,25.6,25.9,34,18.6,> 100,
